In paper PMC9266460, “KSK-74: Dual Histamine H3 and Sigma-2 Receptor Ligand with Anti-Obesity Potential” (International Journal of Molecular Sciences, 2022):

Assays:
H3 histamine receptor = H3 histamine receptor (Homo sapiens, UniProt Q9Y5N1); assay: Intrinsic activity at H3R, Aequoscreen assay; assay type: cell-based
Experimental: Intrinsic activity studies were performed using two methods, Aequoscreen and LANCE Ultra cAMP assays, according to the manufacturer of the ready-to-use cells with stable expressions of the H3 histamine receptor (Perkin Elmer).
The Aequoscreen technology uses recombinant cell lines with stable co-expression of apoaequorin and a GPCR as a system to detect activation of the receptor, following the addition of an agonist, via the measurement of light emission. For the measurement, cells (frozen, ready to use) were thawed and resuspended in 10 mL of assay buffer containing 5 μM of coelenterazine h. The cell suspension was then placed in a 10 mL Falcon tube, fixed on a rotating wheel, and incubated overnight at RT° in the dark. Cells were diluted with assay buffer at 5000 cells/20 µL. Agonistic ligands 2 × (50 μL/well), diluted in assay buffer, were prepared in 1/2 area white polystyrene plates, and 50 μL of cell suspension was dispersed on the ligands using the injector. The light emission was recorded for 20 s. Cells were incubated with antagonist for 15 min at RT°. Then, 50 µL of agonist (final concentration equal to 3 × EC80) was injected into the mixture of cells and antagonist and light emission was recorded for 20 s.

H3R = target: T1, H3R (Homo sapiens, UniProt Q9Y5N1); assay: Intrinsic activity at H3R, range over both methods (LANCE Ultra cAMP and Aequoscreen); assay type: cell-based; settings: read-out: IC50 at H3R, range depending on the assay method
T1 construct: the Aequoscreen line co-expresses apoaequorin
Experimental: The Aequoscreen technology uses recombinant cell lines with stable co-expression of apoaequorin and a GPCR as a system to detect activation of the receptor, following the addition of an agonist, via the measurement of light emission. For the measurement, cells (frozen, ready to use) were thawed and resuspended in 10 mL of assay buffer containing 5 μM of coelenterazine h. The cell suspension was then placed in a 10 mL Falcon tube, fixed on a rotating wheel, and incubated overnight at RT° in the dark. Cells were diluted with assay buffer at 5000 cells/20 µL. Agonistic ligands 2 × (50 μL/well), diluted in assay buffer, were prepared in 1/2 area white polystyrene plates, and 50 μL of cell suspension was dispersed on the ligands using the injector. The light emission was recorded for 20 s. Cells were incubated with antagonist for 15 min at RT°. Then, 50 µL of agonist (final concentration equal to 3 × EC80) was injected into the mixture of cells and antagonist and light emission was recorded for 20 s. The LANCE Ultra cAMP assay as a homogeneous time-resolved fluorescence resonance energy transfer (TR-FRET) immunoassay is designed to measure cAMP produced upon the modulation of adenylyl cyclase activity by GPCRs. […] For the measurement, cells (frozen, ready to use) were thawed and resuspended in 4 mL of HBSS 1×. […]

[1] = system: rats fed a palatable diet; assay: Model of excessive eating: body weight, calorie intake, fat pads; assay type: in vivo, female Wistar rats; settings: for body weight during administration (time course): 10 mg/kg i.p. daily, persisted until the 28th day; for amount of peritoneal fat pads vs palatable diet + vehicle: KSK 10 mg/kg, end of experiment; for amount of peritoneal fat pads vs palatable diet + vehicle / body weight gain vs palatable diet + vehicle: phentermine 7 mg/kg; for calorie intake vs control group fed palatable feed: i.p. 28 days, KSK 10 mg/kg b.w., phentermine 7 mg/kg b.w.; for body weight vs palatable diet + vehicle / body weight gain vs palatable diet + vehicle: i.p. daily 4 weeks; for body weight vs palatable diet + vehicle: 1 mg/kg; for body weight gain vs palatable diet + vehicle: KSK-60/KSK-74 10 mg/kg b.w.
Experimental: Experiments were performed on female Wistar rats with an initial body weight of 140–160 g. The animals were housed in plastic cages (2 rats per cage) at a constant room temperature of 22 ± 2 °C, with a 12:12 h light/dark cycle. Water and food were available ad libitum. The randomly established experimental groups consisted of 6 rats for pharmacological studies and 3 rats for pharmacokinetic studies. All experiments were conducted in accordance with the Guide to the Care and Use of Experimental Animals, and were approved by the Jagiellonian University in Krakow Local Ethics Committee for Experiments on Animals (Permission No: 185/2017, 220/2019 and 223A/2019).
Female rats were randomly divided into several groups (n = 6) and studied for 4 weeks. The groups were as follows: standard diet + vehicle, palatable diet + vehicle, palatable diet + KSK-60 (1 mg/kg), palatable diet + KSK-60 (10 mg/kg), palatable diet + KSK-74 (1 mg/kg), palatable diet + KSK-74 (10 mg/kg), palatable diet + phentermine (7 mg/kg).
The studies for the 1 mg/kg b.w. and 10 mg/kg b.w. doses were performed at different times, so the parameters studied were compared to the respective control groups.
Rats fed a palatable diet had access to a diet consisting of milk chocolate with nuts, cheese, salted peanuts, and 7% condensed milk, and simultaneously to a standard feed (Labofeed B, Morawski Manufacturer Feed, Poland) for 4 weeks. The water was available ad libitum. Animals had access to palatable products, but also to the standard feed. Most importantly, feeding was not in any way forced, as in other models where animals were fed only a high-fat diet, or temporarily deprived of food (binge eating models). In the case of our model, rats decided themselves when, what, and how much to eat. The weight was evaluated daily. Calorie intake was evaluated three times a week. A palatable diet contained 100 g of peanuts—612 kcal; 100 mL of condensed milk—131 kcal; 100 g of milk chocolate—529 kcal; and 100 g of cheese—325 kcal. The standard diet contained 100 g of feed—280 kcal. Standard diet (fats 8%, carbohydrates 67%, proteins 25%) contained 100 g feed—280 kcal.
The palatable control group (palatable diet + vehicle) received vehicle (1% Tween 80 i.p., daily, for 4 weeks), while palatable test groups were injected i.p. with KSK-60 (1 mg or 10 mg/kg i.p, daily, for 4 weeks), KSK-74 (1 mg/kg or 10 mg/kg i.p, daily, for 4 weeks), or phentermine (7 mg/kg i.p., daily, for 4 weeks), respectively.
On the 31st day, 20 min after i.p. administration of heparin (5000 units/rat) and thiopental (70 mg/kg b.w.), animals were sacrificed, and plasma as well as peritoneal fat pads were collected (food was stopped for 6 h prior to organ, tissue, and plasma collection) for further study.

[2] = system: rats fed a palatable diet; assay: Intraperitoneal glucose tolerance test; assay type: in vivo, female Wistar rats; settings: 10 mg/kg; for blood glucose levels after glucose load vs control animals fed palatable feed: glucose 1 g/kg i.p., 29th day
Experimental: The test was conducted on the 29th day of the experiment. After twenty-eight administrations of the test compounds, the food was stopped for 20 h and then glucose tolerance was tested. Glucose (1 g/kg b.w.) was administered i.p.. Blood samples were obtained from the tail vein at the time points 0 (before glucose administration), 30, 60, and 120 min after administration. Glucose levels were measured with a glucometer (ContourTS, Bayer, Leverkusen, Germany, test stripes: ContourTS, Ascensia Diabetes care Poland Sp. z o. o., Poland, REF:84239666). The area under the curve (AUC) was calculated using the trapezoidal rule.

T1 sequence (Q9Y5N1 whole entry): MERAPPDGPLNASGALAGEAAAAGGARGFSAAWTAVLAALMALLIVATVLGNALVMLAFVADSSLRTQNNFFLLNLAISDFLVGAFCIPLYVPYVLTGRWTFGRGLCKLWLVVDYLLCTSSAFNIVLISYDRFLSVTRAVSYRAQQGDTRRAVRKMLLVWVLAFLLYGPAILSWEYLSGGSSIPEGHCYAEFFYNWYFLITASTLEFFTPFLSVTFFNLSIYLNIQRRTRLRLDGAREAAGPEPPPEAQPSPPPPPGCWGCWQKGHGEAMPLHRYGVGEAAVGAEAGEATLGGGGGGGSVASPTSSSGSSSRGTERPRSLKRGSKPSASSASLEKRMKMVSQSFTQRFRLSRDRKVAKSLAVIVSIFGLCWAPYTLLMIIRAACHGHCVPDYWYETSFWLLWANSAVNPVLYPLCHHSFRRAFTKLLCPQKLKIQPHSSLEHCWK
Sequence of H3 histamine receptor (Q9Y5N1 whole entry): as above

IC50 (H3 histamine receptor) [nM]	IC50 (H3R) [nM]	Compound	milk intake vs control group fed palatable feed ([1]; 10 mg/kg b.w.)	peanuts intake vs control group fed palatable feed ([1]; 10 mg/kg b.w.)	body weight during administration (time course) [1]	amount of peritoneal fat pads vs palatable diet + vehicle [1]	calorie intake vs control group fed palatable feed [1]	body weight vs palatable diet + vehicle [1]	body weight gain vs palatable diet + vehicle [1]	area under the IPGTT curve (AUC) vs rats fed high-calorie feed [2]	blood glucose levels after glucose load vs control animals fed palatable feed [2]
31.9 ± 0.5	23 to 32	CCC(=O)c1ccc(OCCCCCCCCN2CCN(c3ccncc3)CC2)cc1 [KSK-74]	consumed significantly less milk in the first and second weeks	significantly less peanuts in the fourth week	significant inhibition of body weight gain around the 10th day	fewer fat pads	did not significantly influence the amount of calories consumed	No differences in body weight	gained significantly less weight	decreased significantly	significantly lower at 30 or/and 60 min after glucose load
1.49 ± 0.2	0.8 to 1.5	CCC(=O)c1ccc(OCCCCCCN2CCN(c3ccncc3)CC2)cc1 [KSK-60]			significant inhibition of body weight gain around the 10th day	fewer peritoneal fat pads	did not significantly influence the amount of calories consumed	No differences in body weight	gained significantly less weight	decreased significantly	significantly lower at 30 or/and 60 min after glucose load
